According to patent US12698523B2, “Enhancement of nucleic acid polymerization by aromatic compounds” (priority 2019, dated 2026):

How the values were obtained:
[1] = tested on: DNA polymerase; assay: Screen of PEMs for enhancement of XNTP polymerization (primer extension reaction, gel electrophoresis); type: biochemical; conditions: for DNA polymerase-mediated primer extension with XNTPs (length of extension products): FIG. 4 gel, no PEM additive: up to only around 14 XNTPs
Text: The Sequencing by Expansion (SBX) methodology developed by the inventors provides significant performance enhancements in sequence read efficiency and accuracy of Xpandomers relative to native DNA. However, initial transcription of the sequence of the natural DNA template onto the measurable Xpandomer relies on the ability of DNA polymerase to utilize XNTPs as substrates (the generalized structure of an XNTP is discussed herein with reference to FIG. 1A and FIG. 2). […] In an effort to improve the efficiency and accuracy of XNTP polymerization into Xpandomers, several PEMs were screened for the ability to enhance DNA polymerase primer extension reactions using XNTPs as substrates.
A representative primer extension reaction may include the following reagents: 2 pmol primer, 2.2 pmol 45mer oligonucleotide template, 50 pmol of each XNTP (XATP, XCTP, XGTP, and XTTP), 50 Mm Tris HCl, Ph 6.79, 200 Mm NaCl, 20% PEG, 5% NMS, 0.5 nmol polyphosphate 60.19, 0.3 Mm MnCl2, and 0.6 μg of purified recombinant DNA polymerase protein. Reactions may be run for 1 hr at 23° C. Reaction products (i.e., constrained Xpandomers) are treated to cleave the phosphoramidate bonds, thereby generating linearized Xpandomers. Reaction products may be analyzed using gel electrophoresis on 4-12% acrylamide gels to resolve and visualize Xpandomer products of different lengths. For the PEM screen described above, PEMs were typically tested in the micro to millimolar range.
Again, this PEM activity is specific for compound 2, as other unrelated aromatic compounds had no effect (lanes 2-7).

[2] = molecular target: T1, C4552 DNA polymerase (Saccharolobus solfataricus, UniProt Q97W02, A155G/A42V/D156R/D292Y/D294N/E291S/E324K/E325K/E327K/E79L/G187P/G299W/I153V/I189F/I248T/I295S/K152A/K317Q/K321Q/K56Y/K78D/L293W/M76W/N188Y/P184Q/Q82W/Q83G/R300S/S297Y/S86E/T290K/T301W/V289W/V296Q); assay: Primer extension assay with three 100mer templates derived from the HIV1, 2 and 3 genomes; type: biochemical, Sulfolobus solfataricus; conditions: 0.5 Mm PEM; HIV1, HIV2, HIV3 100mer templates; 30 minutes at 23° C.; FIG. 9
T1 construct: made in house
Description: PEM activity of compounds 9-11 was tested in primer extension assays using three 100mer templates, derived from the HIV1, 2, and 3 genomes. Primer extension reactions included the following reagents: 75 Mm TrisCl, Ph 8.44, 175 Mm NH4Oac, 20% PEG8K, 5% NMS, 0.8 nmol PP-60.20, 0.6 Mm MnCl2, 2.3 μg Tth single-strand binding protein (SSB), 0.5 M or 1 M urea, 200 pmol each XNTP, 1.1 pmol template, 1 pmol oligonucleotide primer, 1.2 μg purified recombinant C4552 DNA polymerase, and 0.5 Mm PEM. 10 μL primer extension reactions were run for 30 minutes at 23° C. and reaction products were analyzed by gel electrophoresis.

[3] = molecular target: T2, C4760 DNA polymerase (a variant of DPO4, SEQ ID NO:2) (Saccharolobus solfataricus, UniProt Q97W02, A155G/A42V/D156R/D292Y/D294N/E291S/E324K/E325K/E327K/E63R/E79L/G187P/G299W/I153V/I189F/I248T/I295S/K152A/K317Q/K321Q/K56Y/K78D/L293W/M76W/N188Y/P184Q/Q82W/Q83G/R300S/S297Y/S86E/T290K/T301W/V289W/V296Q); assay: Primer extension on a 45mer RNA template derived from the HIV2 genome sequence; type: biochemical, Sulfolobus solfataricus; conditions: 2 Mm PEM; 45mer RNA template from HIV2 genome; 30 minutes at 37° C.
T2 construct: made in house
Description: To begin to investigate the potential of PEMs to enhance diverse polymerase reactions, the ability of PEMS to enable DNA polymerase to utilize RNA as a template was tested. An initial screen of several compounds set forth in Table I was conducted using a 45mer RNA template derived from the HIV2 genome sequence. Primer extension reactions included the following reagents: 50 Mm TrisCl, 200 Mm NH4Oac, 20% PEG8K, 5% NMS, 0.6 nmol PP-60.20, 0.6 Mm MnCl2, 2 μg Kod single-strand binding protein (SSB), 1 M urea, 50 pmol each XNTP, 0.5 pmol template, 0.5 pmol oligonucleotide primer, 1.2 μg purified recombinant C4760 DNA polymerase (a variant of DPO4, see SEQ ID NO:2), and 2 Mm PEM. 10 μL primer extension reactions were run for 30 minutes at 37° C. and reaction products were analyzed by gel electrophoresis.

[4] = molecular target: T2, C4760 DNA polymerase (a variant of DPO4, SEQ ID NO:2); assay: Primer extension assay with the HIV2 100mer template; type: biochemical, Sulfolobus solfataricus; conditions: for polymerization of XNTPs into lengthy Xpandomer copies, combination of PEMs: combination of 2 Mm compound 14 and 0.1 Mm or 0.3 Mm compound 17, FIG. 13 lanes 7-9
Description: PEM activity of compound 12 was tested in primer extension assays using the HIV2 100mer template. Primer extension reactions included the following reagents: 50 Mm TrisCl, 200 Mm NH4Oac, 20% PEG8K, 5% NMS, 0.6 nmol PP-60.20, 0.6 Mm MnCl2, 2.75 μg/μl Eco single-strand binding protein (SSB), 1 M urea, 50 pmol each XNTP, 1.1 pmol template, 1 pmol oligonucleotide primer, 1.2 μg/μl purified recombinant C4760 DNA polymerase (SEQ ID NO:2), and 0.5, 1, or 1.5 Mm PEM. 10 μL primer extension reactions were run for 30 minutes at 23° C. and reaction products were analyzed by gel electrophoresis. […] Lanes 2-4 show primer extension products from reactions with a structurally related additive lacking robust PEM activity.
PEM activity of compounds 13 and 14 was tested in primer extension assays using the HIV2 100mer template. Primer extension reactions included the following reagents: 50 Mm TrisCl, 200 Mm NH4Oac, 20% PEG8K, 5% NMS, 0.6 nmol PP-60.20, 0.6 Mm MnCl2, 2.75 μg/μl Eco single-strand binding protein (SSB), 1 M urea, 50 pmol each XNTP, 1.1 pmol template, 1 pmol oligonucleotide primer, 1.2 μg/μl purified recombinant C4760 DNA polymerase (a variant of DPO4, see SEQ ID NO:2), and 0.5, 1, 1.52, or 2.5 Mm PEM. 10 μL primer extension reactions were run for 30 minutes at 23° C. and reaction products were analyzed by gel electrophoresis. A representative gel showing primer extension products is presented in FIG. 11 (the position of the full length HIV2 100mer is indicated by the arrow).
PEM activity of compounds 16, 17, and 18 and combinations thereof were tested in primer extension assays using the HIV2-derived 100mer template. Primer extension reactions included the following reagents: 50 Mm TrisCl, 200 Mm NH4Oac, 20% or 25% PEG8K, 5% NMS, 0.6 nmol PP-60.20, 0.6 Mm MnCl2, 2 μg Kod single-strand binding protein (SSB), 1 M urea, 50 pmol each XNTP, 1 pmol template, 1 pmol oligonucleotide primer, 1.2 μg purified recombinant C4760 DNA polymerase (a variant of DPO4, see SEQ ID NO:2), and 0.5-2 Mm PEM. 10 μL primer extension reactions were run for 30 minutes at 37° C. and reaction products were analyzed by gel electrophoresis. A representative gel showing primer extension products is presented in FIG. 13 (the position of a 100mer product is indicated by the arrow).

T2 sequence (Q97W02 other isoform, or with tags, fused parts or gaps with the stated changes): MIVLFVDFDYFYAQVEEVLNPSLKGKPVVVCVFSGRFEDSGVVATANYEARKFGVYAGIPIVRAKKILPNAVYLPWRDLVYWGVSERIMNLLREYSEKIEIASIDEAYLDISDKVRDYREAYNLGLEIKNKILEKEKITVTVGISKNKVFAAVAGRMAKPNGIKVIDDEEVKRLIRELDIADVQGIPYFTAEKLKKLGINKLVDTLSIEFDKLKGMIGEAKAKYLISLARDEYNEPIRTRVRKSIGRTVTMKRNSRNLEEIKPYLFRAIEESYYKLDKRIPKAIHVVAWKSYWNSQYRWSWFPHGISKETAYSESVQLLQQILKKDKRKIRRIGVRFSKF
T1 sequence (Q97W02 other isoform, or with tags, fused parts or gaps with the stated changes): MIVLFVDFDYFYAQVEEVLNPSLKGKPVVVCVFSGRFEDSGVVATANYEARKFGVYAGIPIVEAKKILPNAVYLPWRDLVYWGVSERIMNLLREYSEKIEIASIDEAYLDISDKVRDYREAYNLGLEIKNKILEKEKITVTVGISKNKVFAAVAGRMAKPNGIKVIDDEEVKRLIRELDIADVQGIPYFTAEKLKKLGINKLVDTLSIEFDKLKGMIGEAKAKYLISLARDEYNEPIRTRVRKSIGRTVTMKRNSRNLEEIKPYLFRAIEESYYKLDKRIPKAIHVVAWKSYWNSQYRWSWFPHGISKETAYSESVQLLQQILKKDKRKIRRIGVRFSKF

`O=C(O)c1ccc(-n2cc(-c3cncc(-c4cn(-c5ccc(C(=O)O)c(O)c5)nn4)c3)nn2)cc1O` [Compound 2, 4,4′-(pyridine-3,5-diylbis(1H-1,2,3-triazole-4,1-diyl))bis(2-hydroxybenzoic acid)] was tested, and the “primer extension activity with XNTPs” value ([1]; FIG. 5 gel, compound at various concentrations (lanes 8-10)) was “significantly enhances primer extension activity”.

`O=C(O)c1ccc(-n2cc(-c3cccc(-c4cn(-c5ccc(C(=O)O)c(O)c5)nn4)c3)nn2)cc1O` [Compound 3, 4,4′-(1,3-phenylenebis(1H-1,2,3-triazole-4,1-diyl))bis(2-hydroxybenzoic acid)] was tested, and the “DNA polymerase-mediated primer extension with XNTPs (length of extension products)” value [1] was “considerably longer extension products”.

In the case of `COc1cc(-c2cn(-c3ccc(C(=O)O)c(O)c3)nn2)nc(-c2cn(-c3ccc(C(=O)O)c(O)c3)nn2)c1` [Compound 9, 4,4′-((4-methoxypyridine-2,6-diyl)bis(1H-1,2,3-triazole-4,1-diyl))bis(2-hydroxybenzoic acid)], the “polymerization of XNTPs into full length Xpandomer copies (PEM activity)” value [2] is reported as “enable XNTP polymerization at least as efficiently as compound 1”.

For `O=C(O)c1ccc(-n2cc(-c3cc([N+](=O)[O-])cc(-c4cn(-c5ccc(C(=O)O)c(O)c5)nn4)n3)nn2)cc1O` [Compound 11, 4,4′-((4-nitropyridine-2,6-diyl)bis(1H-1,2,3-triazole-4,1-diyl))bis(2-hydroxybenzoic acid)], the “polymerization of XNTPs into full length Xpandomer copies (PEM activity)” value [2] was “enable XNTP polymerization at least as efficiently as compound 1”.

With `O=C(O)c1ccc(-n2cc(-c3ccc4[nH]c5ccc(-c6cn(-c7ccc(C(=O)O)c(O)c7)nn6)cc5c4c3)nn2)cc1O` [Compound 4, 4,4′-((9H-carbazole-3,6-diyl)bis(1H-1,2,3-triazole-4,1-diyl))bis(2-hydroxybenzoic acid)] the “DNA polymerase-mediated primer extension with XNTPs (length of extension products)” value [1] was “considerably longer extension products”.

For `CCNC(=O)c1cc(-c2cn(-c3ccc(C(=O)O)c(O)c3)nn2)nc(-c2cn(-c3ccc(C(=O)O)c(O)c3)nn2)c1` [Compound 17, 4,4′-((4-(ethylcarbamoyl)pyridine-2,6-diyl)bis(1H-1,2,3-triazole-4,1-diyl))bis(2-hydroxybenzoic acid)], the “PEM activity on an RNA template” value [3] was “display PEM activity on an RNA template”, the “polymerization of XNTPs into lengthy Xpandomer copies (PEM activity)” value ([4]; 2 Mm compound 16, 0.5, 1, 2, and 3 Mm compound 17, HIV2-derived 100mer template, Kod SSB, 30 minutes at 37° C., FIG. 13) was “enable polymerization of XNTPs into lengthy Xpandomer copies of the 100mer template in a manner comparable to that of compound 14” and the “polymerization of XNTPs into lengthy Xpandomer copies, combination of PEMs” value ([4]; HIV2-derived 100mer template) was “also enabled polymerization of XNTPs into lengthy Xpandomer copies of the 100mer template”.

`CCOC(=O)c1cc(-c2cn(-c3ccc(C(=O)O)c(O)c3)nn2)nc(-c2cn(-c3ccc(C(=O)O)c(O)c3)nn2)c1` [Compound 14, 4,4′-((4-(ethoxycarbonyl)pyridine-2,6-diyl)bis(1H-1,2,3-triazole-4,1-diyl))bis(2-hydroxybenzoic acid)] was tested, and the “polymerization of XNTPs into full length Xpandomer copies (PEM activity)” value ([4]; 0.5, 1, 1.52, or 2.5 Mm PEM, HIV2 100mer template, Eco SSB, 30 minutes at 23° C., FIG. 11) was “enables polymerization of XNTPs into full length Xpandomer copies of the 100mer template in a manner comparable to that of compound 10” and the “polymerization of XNTPs into lengthy Xpandomer copies, combination of PEMs” value ([4]; HIV2-derived 100mer template) was “also enabled polymerization of XNTPs into lengthy Xpandomer copies of the 100mer template”.
